Data taken from patent publication US20110189122A1, “Use of Molt-Accelerating Compounds, Ecdysteroids, Analogs Thereof, and Chitin Synthesis Inhibitors for Controlling Termites” (priority 2004, published 2011).

Legend:
[1] = test system: eastern subterranean termites (EST), Reticulitermes flavipes (Kollar); assay: Test #1 Choice Feeding Bait Test, Halofenozide+Hexaflumuron (treated filter paper vs. untreated SYP); format: in vivo; details: for % Surviving: 26 days; for mg consumed after 12 days (Mean ± SEM), treated FP: choice vs. SYP
Experimental: (§1) Test #1 Choice Feeding Bait Test, Halofenozide+Hexaflumuron. A paired choice feeding test was conducted to compare feeding response and resultant mortality caused by various combinations of technical grade halofenozide and hexaflumuron treated on filter paper (acetone carrier). The test apparatus consisted of two round plastic containers connected by a 7-cm long piece of 2.5-mm diameter (ID) tygon tubing. A known number of termite workers were introduced into a central harborage chamber (5.5 cm round container with ventilated lid) containing a vermiculite/sand/water mixture of ca. 1:1:1. The central harborage chamber was connected by the tygon tubing to the bait foraging chamber (without sand/vermiculite matrix) containing the paired feeding choices.
ESTs were given the choice to feed between untreated blocks of southern yellow pine (SYP) and treated filter paper. Halofenozide was tested individually at concentrations of 1250, 2500, and 5000 ppm. Hexaflumuron was tested at 5000 ppm, and also combined with each of the aforementioned concentrations of halofenozide. For comparative purposes, technical grade noviflumuron were also tested at 5000 ppm. After twelve days, all treatments were removed, oven-dried, and weighed for consumption. Filter paper was placed in all bioassay units that were held for fourteen more days. Surviving termites were then counted in each replicate. Thus, survival was counted at 26 days after initial exposure to the toxicant. Each treatment was replicated four times with 50 termites per replicate.

Amitermes wheeleri = assay: Forced feeding test on treated purified cellulosic bait; format: in vivo; details: 5000 ppm noviflumuron on cellulosic bait
Experimental: A forced feeding test was conducted to compare mortality caused by different active ingredients treated on purified cellulosic bait. The test apparatus was the same as that described in Example 5. Noviflumuron was tested on the bait at 5000-ppm concentration, and also in combination with 5000-ppm Halofenozide Blank bait was also tested. Surviving termites were also counted at 28 days after initial exposure to the toxicant.

[2] = test system: eastern subterranean termites (EST), Reticulitermes flavipes (Kollar); assay: Test #2 Choice Feeding Bait Test, Halofenozide+Noviflumuron (treated filter paper vs. untreated SYP); format: in vivo; details: for mg consumed after 14 days (Mean ± SEM), untreated SYP: SYP block offered against FP with single active 5000 ppm; for No. Survivors/50 after 14 days (Mean ± SEM) / % Surviving / mg consumed after 14 days (Mean ± SEM), treated FP: single active 5000 ppm on filter paper; for % Surviving: 14 days; for mg consumed after 14 days (Mean ± SEM), treated FP: choice vs. SYP
Experimental: as §1
Test #2. Choice Feeding Bait Test, Halofenozide+Noviflumuron. A standard paired choice feeding test using the same methods described in Test #1 was conducted to compare feeding response and resultant mortality caused by various combinations of technical grade halofenozide and noviflumuron treated on filter paper (acetone carrier). EST were given the choice to feed between untreated blocks of southern yellow pine (SYP) and treated filter paper. Halofenozide and noviflumuron were tested individually at concentrations of 5000 ppm. Five thousand ppm (5000-ppm) noviflumuron was also tested in combination with 1250, 2500, or 5000 ppm halofenozide. After fourteen days, all treatments were removed, oven-dried, and weighed for consumption. Because of the rapid activity of noviflumuron, surviving termites were also counted in each replicate after only 14 days of feeding. Each treatment was replicated four times with 50 termites per replicate.

R. flavipes = assay: Feeding ecdysteroid-treated filter paper to subterranean termites, 12-day exposure; format: in vivo; details: for days of exposure until some termites exhibited the jackknife position (incomplete molting): treated filter paper
Experimental: (§2) Termites were collected from three colonies each of C. formosanus and R. flavipes and were held in the laboratory at 26±1° C. and 98±2% RH before use Technical grade ecdysone was dissolved in methanol to obtain 0.1, 1, 10, 100 and 1,000-ppm solutions by serial dilution. Methanol solutions (i.e., 0 ppm AI) were used as untreated controls. Each concentration solution (0.2 ml) was pipetted onto […] Whatman No. 1 filter paper fitted into 5-cm-diameter glass Petri dishes and allowed to evaporate overnight.
(§3) This filter paper served as the cellulose food source for twenty-five termites, plus one soldier for R. flavipes or three soldiers for C. formosanus, which were introduced into each Petri dish after moistening the filter paper with 0.175 ml deionized water. For each species, two subsamples each of three colonies were used per concentration for a total of 72 experimental units. The bioassay units was held at 26±1° C. Observation was made daily for 12 days. Termites showing symptoms of incomplete molting were counted, and dead termites were removed from each unit. […] For each treatment and species combination, mean percent termites showing symptoms of incomplete molting and mortality among concentrations at 12 day were arcsine-root transformed and subjected to the analysis of variance (ANOVA). Significant differences (α=0.05) among concentrations were separated using Fisher's least significant difference (LSD) test (SAS Institute 1999).
(§4) 20-hydroxyecdysone is an ecdysone byproduct. Technical grade 20-hydroxyecdysone (20 E) was dissolved and used in the same manners as was ecdysone, as discussed above in Example 1.

C. formosanus [3] = assay: as above; format: in vivo; details: for days of exposure until some termites exhibited the jackknife position (incomplete molting): treated filter paper
Experimental: as §2, §3, §4

[4] = test system: eastern subterranean termites (Reticulitermes flavipes); details: wood slice feeding blocks vacuum-impregnated with halofenozide, choice test; cited from earlier work
C. formosanus [5] = details: C. formosanus, 10,000 ppm, similar condition; cited from earlier work
[6] = SYP block offered against FP with single active 5000 ppm
[7] = single active 5000 ppm on filter paper
[8] = R. flavipes, 0.1 ppm, 12-day exposure
[9] = R. flavipes, 1 ppm, 12-day exposure
[10] = R. flavipes, 10 ppm, 12-day exposure
[11] = R. flavipes, 100 ppm, 12-day exposure
[12] = R. flavipes, 1,000 ppm, 12-day exposure
[13] = C. formosanus, 0.1 ppm, 12-day exposure
[14] = C. formosanus, 1 ppm, 12-day exposure
[15] = C. formosanus, 10 ppm, 12-day exposure
[16] = C. formosanus, 100 ppm, 12-day exposure
[17] = C. formosanus, 1,000 ppm, 12-day exposure
[18] = C. formosanus, 1,000 ppm, 12-day exposure, listed as 20 E
[19] = single active 1250 ppm on filter paper
[20] = single active 2500 ppm on filter paper

Row | Structure (SMILES) | mg consumed after 12 days (Mean ± SEM), untreated SYP [1, 6] | No. Survivors/50 after 26 days (Mean ± SEM) [1, 7] | % Surviving [1, 7] [%] | mg consumed after 12 days (Mean ± SEM), treated FP [1, 7] [a mg] | mg consumed after 14 days (Mean ± SEM), untreated SYP [2] | No. Survivors/50 after 14 days (Mean ± SEM) [2] | % Surviving [2] [%] | mg consumed after 14 days (Mean ± SEM), treated FP [2] [a mg] | % Incomplete Molting (±SE) (R. flavipes; [8]) [a %] | % Incomplete Molting (±SE) (R. flavipes; [9]) [a %] | % Incomplete Molting (±SE) (R. flavipes; [10]) [a %] | % Incomplete Molting (±SE) (R. flavipes; [11]) | days of exposure until some termites exhibited the jackknife position (incomplete molting) (R. flavipes; R. flavipes) | % Incomplete Molting (±SE) (C. formosanus [3]; [13]) [a %] | % Incomplete Molting (±SE) (C. formosanus [3]; [14]) [a %] | % Incomplete Molting (±SE) (C. formosanus [3]; [15]) [a %] | % Incomplete Molting (±SE) (C. formosanus [3]; [16]) [a %] | days of exposure until some termites exhibited the jackknife position (incomplete molting) (C. formosanus [3]; C. formosanus) | other results
1 | O=C(NC(=O)c1c(F)cccc1F)Nc1cc(Cl)c(OC(F)(F)C(F)C(F)(F)F)c(Cl)c1F (stereo not shown) [Noviflumuron, noviflumuron] | 1.77 ± 1.71 b mg | 5.00 ± 3.72 e | 10.0 | 16.17 ± 3.64 | 2.58 ± 1.03 b mg | 13.50 ± 3.52 bc | 27.0 | 14.58 ± 2.20 |  |  |  |  |  |  |  |  |  |  | No. Survivors/30 after 28 days (Amitermes wheeleri): reduced termite survivorship in half; % Surviving (Amitermes wheeleri; 28 days): 43%; No. Survivors/30 after 28 days (Amitermes wheeleri; listed as noviflumuron): 12; % Surviving ([2]; listed as noviflumuron): 27%
2 | CC(C)(O)CC[C@@H](O)[C@](C)(O)[C@H]1CC[C@@]2(O)C3=CC(=O)[C@@H]4C[C@@H](O)[C@@H](O)C[C@]4(C)[C@H]3CC[C@]12C [20-hydroxyecdysone] |  |  |  |  |  |  |  |  | 0.00 ± 0.00 | 0.00 ± 0.00 | 0.00 ± 0.00 | 3.85 ± 1.40ab % | approximately 7 days | 0.00 ± 0.00 | 0.00 ± 0.00 | 0.00 ± 0.00 | 2.38 ± 1.19 | approximately 7 days | % Mortality (±SE) (R. flavipes; [8]): 0.64 ± 0.64a %; % Mortality (±SE) (R. flavipes; [9]): 0.00 ± 0.00a %; % Mortality (±SE) (R. flavipes; [10]): 0.64 ± 0.64a %; % Mortality (±SE) (R. flavipes; [11]): 76.19 ± 11.28b %; % Incomplete Molting (±SE) (R. flavipes; [12]): 7.69 ± 3.29b %; % Mortality (±SE) (R. flavipes; [12]): 100%; % Incomplete Molting (±SE) (R. flavipes; R. flavipes, 1,000 ppm, 12-day exposure, listed as 20 E): evident; % Mortality (±SE) (C. formosanus [3]; [13]): 1.19 ± 0.75ab %; % Mortality (±SE) (C. formosanus [3]; [14]): 10.12 ± 9.42bc %; % Mortality (±SE) (C. formosanus [3]; [15]): 3.57 ± 2.26abc %; % Mortality (±SE) (C. formosanus [3]; [16]): 11.90 ± 5.43c %; % Incomplete Molting (±SE) (C. formosanus [3]; [17]): 26.19 ± 6.09b %; % Mortality (±SE) (C. formosanus [3]; [17]): 74.40 ± 3.62d %; % Incomplete Molting (±SE) (C. formosanus [3]; [18]): evident; % Mortality (±SE) (C. formosanus [3]; [18]): ca. 75%
3 | C[C@H]([C@H](O)CCC(C)(C)O)[C@H]1CC[C@@]2(O)C3=CC(=O)[C@@H]4C[C@@H](O)[C@@H](O)C[C@]4(C)[C@H]3CC[C@]12C [ecdysone] |  |  |  |  |  |  |  |  | 0.00 ± 0.00 | 0.00 ± 0.00 | 0.00 ± 0.00 | 0.00 ± 0.00a % | approximately 7 days | 0.00 ± 0.00 | 0.00 ± 0.00 | 2.38 ± 2.38 | 8.33 ± 5.95 | approximately 7 days | mortality at 0.1 ppm (R. flavipes; Reticulitermes flavipes, 288 h, R. flavipes, 0.1 ppm, 12-day exposure, read-out: % Mortality (±SE)): 0%; mortality at 1 ppm (R. flavipes; Reticulitermes flavipes, 288 h, R. flavipes, 1 ppm, 12-day exposure, read-out: % Mortality (±SE)): 0%; mortality at 10 ppm (R. flavipes; Reticulitermes flavipes, 288 h, R. flavipes, 10 ppm, 12-day exposure, read-out: % Mortality (±SE)): 0%; mortality at 100 ppm (R. flavipes; Reticulitermes flavipes, 288 h, R. flavipes, 100 ppm, 12-day exposure, read-out: % Mortality (±SE)): 60.3 ± 18.1%; mortality at 1000 ppm (R. flavipes; Reticulitermes flavipes, 288 h, R. flavipes, 1,000 ppm, 12-day exposure, read-out: % Mortality (±SE)): 100%; mortality at 0.1 ppm (C. formosanus [3]; Coptotermes formosanus, 288 h, C. formosanus, 0.1 ppm, 12-day exposure, read-out: % Mortality (±SE)): 1.79 ± 1.22%; mortality at 1 ppm (C. formosanus [3]; Coptotermes formosanus, 288 h, C. formosanus, 1 ppm, 12-day exposure, read-out: % Mortality (±SE)): 1.19 ± 0.75%; mortality at 10 ppm (C. formosanus [3]; Coptotermes formosanus, 288 h, C. formosanus, 10 ppm, 12-day exposure, read-out: % Mortality (±SE)): 11.3 ± 6.55%; mortality at 100 ppm (C. formosanus [3]; Coptotermes formosanus, 288 h, C. formosanus, 100 ppm, 12-day exposure, read-out: % Mortality (±SE)): 100%; mortality at 1000 ppm (C. formosanus [3]; Coptotermes formosanus, 288 h, C. formosanus, 1,000 ppm, 12-day exposure, read-out: % Mortality (±SE)): 93.5 ± 6.55%
4 | CC(C)(C)N(NC(=O)c1ccc(Cl)cc1)C(=O)c1ccccc1 [Halofenozide, halofenozide] | 14.97 ± 3.85 a mg | 23.25 ± 7.88 days | 46.5 | 9.33 ± 1.41 | 8.35 ± 3.91 a mg | 22.25 ± 5.36 b | 44.5 | 10.12 ± 1.48 |  |  |  |  |  |  |  |  |  |  | mg consumed after 12 days (Mean ± SEM), untreated SYP ([1]; SYP block offered against FP with single active 1250 ppm): 9.49 ± 2.57 a mg; mg consumed after 12 days (Mean ± SEM), untreated SYP ([1]; SYP block offered against FP with single active 2500 ppm): 7.92 ± 2.13 a mg; No. Survivors/50 after 26 days (Mean ± SEM) [1, 19]: 45.00 ± 2.04 a; % Surviving [1, 19]: 90.0%; mg consumed after 12 days (Mean ± SEM), treated FP [1, 19]: 16.05 ± 3.39 a mg; No. Survivors/50 after 26 days (Mean ± SEM) [1, 20]: 33.75 ± 6.56 bc; % Surviving [1, 20]: 67.5%; mg consumed after 12 days (Mean ± SEM), treated FP [1, 20]: 18.70 ± 4.32 a mg; concentrations at which feeding deterrence occurs [4]: greater than 4,000 ppm; mortality (C. formosanus [5]): 50%
5 | O=C(NC(=O)c1c(F)cccc1F)Nc1cc(Cl)c(OC(F)(F)C(F)F)c(Cl)c1 [Hexaflumuron, hexaflumuron] | 9.28 ± 3.55 b mg | 32.5 ± 5.48 bc | 65.0 | 21.20 ± 2.06 |  |  |  |  |  |  |  |  |  |  |  |  |  |  | 
